Source: patent US20250235418A1, “Butyrate Analogues and Methods of Use for HIF Stabilization and Treatment of Bowel Disease” (THE REGENTS OF THE UNIVERSITY OF COLORADO, A BODY CORPORATE, priority 2022, published 2025)

Key:
HIF1α in T84 cells = assay: HIF1α immunoblot in T84 cells (MBA vs BA); type: cell-based; conditions: T84 cells
Description: (A) Structures of butyrate derivatives investigated in initial screen for HIF stabilization. Immunoblot of HIF1a protein levels in Caco-2 cells (B) and T84 cells (C) exposed to veh (HBSS+), […], or 5 mM butyrate derivatives for 6h. (D) Dose response study of HIF1a accumulation in T84 cells treated with decreasing concentrations of MBA and BA for 6 h.
(A) Immunoblots of HIF1a protein over time after exposure of T84 cells to 5 mM BA and MBA. (B) Mesoscale assay of HIF1a protein over time in caco-2 cells treated with 5 mM MBA compared to veh. (C) HIF1a and HIF target (BNIP3) protein in caco-2 cells exposed to veh (HBSS+), […] or 5 mM MBA. Data are presented as mean+S.E.M, *p<0.05, **p<0.01, ***p<0.001.
Endogenous and non-endogenous butyrate derivatives with specifically chosen functional groups at different positions within the small molecule and assess their effects on HIF stabilization (FIG. 21A). To study a small library of butyrate derivatives we employed an electrochemiluminescence based assay to quantify HIF1α levels using the Meso Scale Discovery (HIF1α MSD assay, http://www.mesoscale.com) technology. Similar to the sandwich enzyme-linked immunosorbent assay (ELISA), this technology captures and detects HIF1α protein using two specific antibodies but utilizes electrochemiluminescence-based signal generation and detection. Using lysates from intestinal epithelial cells (IECs) caco-2 and T84 exposed to a physiological relevant concentration of 5 mM butyrate derivatives for 4h, this assay was employed to determine HIF1α protein concentration. A bona-fide and potent PHD2 inhibitor (IOX4) was used to stabilize HIF1α as a positive control. Various butyrate derivatives increased HIF1α relative concentration in both cell lines compared to low signals detected in untreated lysates. […] We decided to focus on this interesting butyrate derivative for further studies.
To elucidate the effectiveness of MBA to stabilize HIF1α over time and possibly shine light on how quickly it can be metabolized in-vitro, time-course studies where performed between BA and MBA, IOX4 was used as a positive control. […] Employing the HIF1α MSD assay, we screened for various timepoints in caco-2 cell lysates exposed to MBA (5 mM). […] BNIP3 is involved in cell survival and is a known HIF1α target that is induced through chemical stabilization of HIF or hypoxia. BNIP3 promoter comprises a functional hypoxia response element (HRE) and can be activated by HIF1α.[5] Parallel to our HIF stabilization time course studies, we wanted to assess the transcriptional activity of the stabilized protein over time.

PHD2181-402 = target: T1, PHD2181-402 (Homo sapiens, UniProt Q9GZT9); assay: WaterLOGSY 1D NMR binding to PHD2181-402; conditions: for binding to PHD2181-402 by WaterLOGSY: 10 mM SCFA, 25 μM PHD2181-402
T1 construct: made in house
T1 sequence (Q9GZT9 181-402): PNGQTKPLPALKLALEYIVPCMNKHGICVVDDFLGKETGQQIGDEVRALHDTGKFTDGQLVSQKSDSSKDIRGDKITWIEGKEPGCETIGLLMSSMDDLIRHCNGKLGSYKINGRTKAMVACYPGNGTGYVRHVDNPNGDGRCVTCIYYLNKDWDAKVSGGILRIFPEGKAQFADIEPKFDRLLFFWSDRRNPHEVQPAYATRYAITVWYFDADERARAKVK
Text: Protons attached to C4 were selectively inverted and acted as source of magnetization transfer. […] (G) Protons attached to C2 were selectively inverted.
Measurements were repeated 3 times.
This method enables sensitive and robust detection of binding (dissociation constants as weak as μM to low mM) based on the magnetization transfer between water molecules, proteins, and ligands of interest in close proximity via dipolar proton-proton cross-relaxation (nuclear Overhauser effect, NOE). […] Binding and non-binding ligands can be distinguished in a WaterLOGSY spectrum via their opposite signs in relation to water for their corresponding peaks.
This technique allows for mapping of the ligand pharmacophore by monitoring the response of individual protons to an increase of ROEs contribution to the overall cross relaxation rate.

c2bbe cells = assay: epithelial barrier formation by transepithelial electrical resistance (TEER); type: cell-based; conditions: 5 mM
Description: Barrier development in Caco-2 cells treated with Veh, BA or […] (5 mM); n=6. Data analyzed by Two-way ANOVA with Dunnett for post hoc correction and presented as mean±S.E.M, *p<0.05 **p<0.01, ***p<0.001, #BA, *MBA compared to veh in two independent experiments.
TEER of C2bbe cells exposed to 5 mM butyrate derivatives.
Therefore, we decided to study the effect of various butyrate derivatives in barrier function; in fact, sodium butyrate is an established pro-barrier factor. We studied epithelial barrier integrity through measurement of transepithelial electrical resistance (TEER), a typical assay for the quantitation of epithelial barrier strength. IEC c2bbe were exposed to butyrate derivatives (all at 5 mM) and TEERS were measured daily.

[1] = tested on: PHD (2-OG accumulation) in T84 IECs; assay: 2-OG levels in T84 cells as biomarker of PHD inhibition; type: cell-based; conditions: 3 h
Description: (B) 2-OG concentrations in T84 cells treated with 10 mM butyrate with or without 1 mM MCPA or 30 μM IOX2 for 3 h
The relationship between butyrate and HIF, were examined whether butyrate influences PHD activity by monitoring 2-OG levels. […] In this, we considered such 2-OG accumulation as a metabolic biomarker of PHD inhibition (FIG. 3A).

CCCC(=O)O [Butyrate, Butyric acid]
HIF1α stabilization over time (immunoblot) (HIF1α in T84 cells; 5 mM BA and MBA, IOX4 positive control): no longer stabilized at 48h | dose response of HIF1α accumulation (HIF1α in T84 cells; decreasing concentrations, 6 h): quickly becomes ineffective | binding to PHD2181-402 by WaterLOGSY (PHD2181-402; listed as Butyric acid): indicating binding | binding to PHD2181-402 by WaterLOGSY (PHD2181-402; listed as butyrate): indicative of binding | binding to the 2-OG and PHD2181-402 complex by WaterLOGSY (PHD2181-402; 10 mM butyrate, 25 μM PHD2181-402, with 150 μM 2-OG): could not bind | barrier integrity over the course of the experiment (c2bbe cells): lose the integrity of their barrier | 2-OG levels in the presence of MCPA ([1]; 10 mM butyrate with 1 mM MCPA): significantly increased | 2-OG levels compared to control ([1]; 10 mM butyrate, 30 μM IOX2): significantly increased
